Assay results as given in patent US20240091183A1 (Syros Pharmaceuticals, Inc., priority 2021, published 2024).

Assay: population PK model and simulations of flat versus BSA-based dosing of tamibarotene
Set-up: species or system human
Settings: population PK analysis of prior study, 6 mg/m2/day in 2 divided doses
Description: The dose and regimen used in a prior study (6 mg/m^2/day in 2 divided doses) were based on the dose and regimen approved in Japan for the treatment of APL. […] Based on this analysis, the fixed dosing regimens described herein, including the 6 mg BID flat dosing regimen, are expected to provide similar PK exposures compared to the 6 mg/m^2/day (in 2 divided doses) regimen used in the prior study.
A population PK model was developed using patient characteristics, and we assessed the impact of weight on drug clearance. Simulations were conducted to assess the performance of “flat” versus BSA-based dosing. Simulated AUC (area-under-the-curve) from the model was used to establish relationship of exposure with efficacy and safety; we analyzed exposure and achievement of CR/CRi and exposure with adverse events equal to or greater than those of grade 3.

With Tamibarotene the “association of body size with clearance” value was “not significantly associated”.
